Molecular target: T1, human GPR119 (hGPR119) (Homo sapiens, UniProt Q8TDV5)
T1 construct: expressed in transfected cells
T1 sequence (Q8TDV5 1-335): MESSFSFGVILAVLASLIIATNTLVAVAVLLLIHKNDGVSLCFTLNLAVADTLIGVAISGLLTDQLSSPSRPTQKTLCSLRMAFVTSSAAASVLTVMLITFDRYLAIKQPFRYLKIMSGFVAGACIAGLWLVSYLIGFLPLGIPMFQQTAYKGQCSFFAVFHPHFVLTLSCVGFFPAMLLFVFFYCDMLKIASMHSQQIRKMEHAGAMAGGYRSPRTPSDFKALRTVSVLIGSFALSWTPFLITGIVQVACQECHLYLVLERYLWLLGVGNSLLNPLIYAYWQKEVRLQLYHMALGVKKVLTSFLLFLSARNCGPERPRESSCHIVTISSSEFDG
Test: cAMP accumulation assay (cAMP Gs dynamic HTRF kit)
Assay type: cell-based
Conditions: CHO-K1 cells stably expressing hGPR119, 4-parameter fit; for Emax: 1 h, % activity normalized to Max/Min controls; for EC50: cAMP accumulation
Method: CHO-K1 cells stably expressing human GPR119 (hGPR119) were prepared by transfection of a GPR119-carrying plasmid using Lipofectamine 2000 (following manufacturer instructions). A stable cell line was established using the limiting dilution method with geneticine selection. Assay-ready frozen (ARF) cells were prepared and used throughout the study.
The assay was performed in a 384-well plate format using the cAMP Gs dynamic assay kit from Cisbio. ARF cells expressing hGPR119 were thawed, washed and then resuspended in cAMP stimulation buffer at a cell density of 1.1×10^6 cells/mL. Cells were plated at a density of ˜10,000 cells/well (9 μL/well). Dose response curves for the tested compounds were prepared in a cAMP stimulation buffer, containing 0.1% Tween 80 at 4 fold the final concentration. The compounds were then transferred to the cell plates using BRAVO (3 μL/well) and the plates were incubated for 60 minutes at 37° C./5% CO2. Detection buffer (10 μL, prepared as described in the cAMP Gs dynamic kit) were added to each well, and the plates were incubated at ambient temperature for 1 hr.
RT-FRET was measured using a ClarioSTAR plate reader, calculating the ratio between emissions at 665 nm and 620 nm (HTRF ratio). The HTRF ratio for positive (Max) and negative (Min) controls were used to normalize HTRF data and generate values for % activity. EC50 and Max activity values were determined using a standard 4-parameter fit.

Row | Emax [%] | EC50 [µM] | Compound
1 | ≥ 130 | 0.1 to 1 | O=C(Cc1ccc(OCCCC2CCN(c3ncc(Cl)cn3)CC2)cc1F)NCCCCCNC(CO)CO [Example 1, 2-[4-[3-[1-(5-chloropyrimidin-2-yl)-4-piperidyl]propoxy]-2-fluoro-phenyl]-N-[5-[[2-hydroxy-1-(hydroxymethyl)ethyl]amino]pentyl]acetamide]
2 | ≥ 130 | 0.1 to 1 | CC[N+](CC)(CC)CCCCCNC(=O)Cc1ccc(OCCCC2CCN(c3ncc(Cl)cn3)CC2)cc1F [Example 2, 5-[[2-[4-[3-[1-(5-chloropyrimidin-2-yl)-4-piperidyl]propoxy]-2-fluoro-phenyl]acetyl]amino]pentyl-triethyl-ammonium]
3 | ≥ 130 | 0.1 to 1 | O=C(Cc1ccc(OCCCC2CCN(c3ncc(Cl)cn3)CC2)cc1F)NCCCCCNC[C@H](O)[C@@H](O)[C@H](O)[C@H](O)CO [Example 3]
4 | 100 to 130 | 0.1 to 1 | CCCc1cnc(N2CCC(CCCOc3cc(F)c(CC(=O)NCCCCC[N+](CC)(CC)CC)c(F)c3)CC2)nc1 [Example 4, 5-[[2-[2,6-difluoro-4-[3-[1-(5-propylpyrimidin-2-yl)-4-piperidyl]propoxy]phenyl]acetyl]amino] pentyl-triethyl-ammonium]
5 | 100 to 130 | 0.1 to 1 | O=C(Cc1ccc(OCCCC2CCN(c3ncc(Cl)cn3)CC2)cc1F)NC(CO)(CO)CO [Example 5, 2-[4-[3-[1-(5-chloropyrimidin-2-yl)-4-piperidyl]propoxy]-2-fluoro-phenyl]-N-[2-hydroxy-1,1-bis(hydroxymethyl)ethyl]acetamide]
6 | 100 to 130 | 0.1 to 1 | O=C(Cc1c(F)cc(OCCCC2CCN(c3ncc(Cl)cn3)CC2)cc1F)NC(CO)(CO)CO [Example 6, 2-[4-[3-[1-(5-chloropyrimidin-2-yl)-4-piperidyl]propoxy]-2,6-difluoro-phenyl]-N-[2-hydroxy-1,1-bis(hydroxymethyl)ethyl]acetamide]
7 | 100 to 130 | ≤ 0.1 | CCc1cnc(N2CCC(CCCOc3cc(F)c(CC(=O)NC(CO)(CO)CO)c(F)c3)CC2)nc1 [Example 7, 2-[4-[3-[1-(5-ethylpyrimidin-2-yl)-4-piperidyl]propoxy]-2,6-difluoro-phenyl]-N-[2-hydroxy-1,1-bis(hydroxymethyl)ethyl]acetamide]
8 | 100 to 130 | ≤ 0.1 | CCCc1cnc(N2CCC(CCCOc3cc(F)c(CC(=O)NC(CO)(CO)CO)c(F)c3)CC2)nc1 [Example 8, 2-[2,6-difluoro-4-[3-[1-(5-propylpyrimidin-2-yl)-4-piperidyl]propoxy]phenyl]-N-[2-hydroxy-1,1-bis(hydroxymethyl)ethyl]acetamide]
9 | 100 to 130 | ≤ 0.1 | O=C(Cc1ccc(OCCCC2CCN(c3ncc(Cl)cn3)CC2)cc1F)N1CC(CO)(CO)C1 [Example 9, 1-[3,3-bis(hydroxymethyl)azetidin-1-yl]-2-[4-[3-[1-(5-chloropyrimidin-2-yl)-4-piperidyl]propoxy]-2-fluoro-phenyl]ethanone]
10 | ≥ 130 | 1 to 10 | O=C(Cc1ccc(OCCCC2CCN(c3ncc(Cl)cn3)CC2)cc1F)NCCS(=O)(=O)O [Example 10, 2-[[2-[4-[3-[1-(5-chloropyrimidin-2-yl)-4-piperidyl]propoxy]-2-fluoro-phenyl]acetyl]amino]ethanesulfonic acid]
11 | ≥ 130 | 1 to 10 | O=C(Cc1ccc(OCCCC2CCN(c3ncc(Cl)cn3)CC2)cc1F)NCCCS(=O)(=O)O [Example 11, 3-[[2-[4-[3-[1-(5-chloropyrimidin-2-yl)-4-piperidyl]propoxy]-2-fluoro-phenyl]acetyl]amino]propane-1-sulfonic acid]
12 | ≥ 130 | 1 to 10 | O=C(Cc1ccc(OCCCC2CCN(c3ncc(Cl)cn3)CC2)cc1F)NCCCCS(=O)(=O)O [Example 12, 4-[[2-[4-[3-[1-(5-chloropyrimidin-2-yl)-4-piperidyl]propoxy]-2-fluoro-phenyl]acetyl]amino]butane-1-sulfonic acid]
13 | ≥ 130 | ≤ 0.1 | NS(=O)(=O)CCCNC(=O)Cc1ccc(OCCCC2CCN(c3ncc(Cl)cn3)CC2)cc1F [Example 13, 2-[4-[3-[1-(5-chloropyrimidin-2-yl)-4-piperidyl]propoxy]-2-fluoro-phenyl]-N-(3-sulfamoylpropyl)acetamide]
14 | ≥ 130 | ≤ 0.1 | NS(=O)(=O)CCCCNC(=O)Cc1ccc(OCCCC2CCN(c3ncc(Cl)cn3)CC2)cc1F [Example 14, 2-[4-[3-[1-(5-chloropyrimidin-2-yl)-4-piperidyl]propoxy]-2-fluoro-phenyl]-N-(4-sulfamoylbutyl)acetamide]
15 | 100 to 130 | 0.1 to 1 | CCc1cnc(N2CCC(CCCOc3ccc(CC(=O)NCCC[N+](C)(C)C)c(F)c3)CC2)nc1 [Example 15, 3-[[2-[4-[3-[1-(5-ethylpyrimidin-2-yl)-4-piperidyl]propoxy]-2-fluoro-phenyl]acetyl]amino]propyl-trimethyl-ammonium]
16 | ≥ 130 | 0.1 to 1 | O=C(Cc1ccc(OCCCC2CCN(c3ncc(Cl)cn3)CC2)cc1F)NCCCCCC(=O)NC(CO)CO [Example 17, 6-[[2-[4-[3-[1-(5-chloropyrimidin-2-yl)-4-piperidyl]propoxy]-2-fluoro-phenyl]acetyl]amino]-N-[2-hydroxy-1-(hydroxymethyl)ethyl]hexanamide]
17 | 100 to 130 | 0.1 to 1 | O=C(Cc1ccc(OCCCC2CCN(c3ncc(Cl)cn3)CC2)cc1F)NCCCCCC(=O)NC(CO)(CO)CO [Example 18, 6-[[2-[4-[3-[1-(5-chloropyrimidin-2-yl)-4-piperidyl]propoxy]-2-fluoro-phenyl]acetyl]amino]-N-[2-hydroxy-1,1-bis(hydroxymethyl)ethyl]hexanamide]
18 | 100 to 130 | 0.1 to 1 | O=C(Cc1ccc(OCCCC2CCN(c3ncc(Cl)cn3)CC2)cc1F)NCCC(=O)NC(CO)CO [Example 19, 3-[[2-[4-[3-[1-(5-chloropyrimidin-2-yl)-4-piperidyl]propoxy]-2-fluoro-phenyl]acetyl]amino]-N-[2-hydroxy-1-(hydroxymethyl)ethyl]propanamide]
19 | ≥ 130 | 0.1 to 1 | O=C(Cc1ccc(OCCCC2CCN(c3ncc(Cl)cn3)CC2)cc1F)NCCC(=O)NC(CO)(CO)CO [Example 20, 3-[[2-[4-[3-[1-(5-chloropyrimidin-2-yl)-4-piperidyl]propoxy]-2-fluoro-phenyl]acetyl]amino]-N-[2-hydroxy-1,1-bis(hydroxymethyl)ethyl]propanamide]
20 | ≥ 130 | 0.1 to 1 | O=C(Cc1ccc(OCCCC2CCN(c3ncc(Cl)cn3)CC2)cc1F)NCCCC(=O)NC(CO)CO [Example 21, 4-[[2-[4-[3-[1-(5-chloropyrimidin-2-yl)-4-piperidyl]propoxy]-2-fluoro-phenyl]acetyl]amino]-N-[2-hydroxy-1-(hydroxymethyl)ethyl]butanamide]
21 | ≥ 130 | 0.1 to 1 | O=C(Cc1ccc(OCCCC2CCN(c3ncc(Cl)cn3)CC2)cc1F)NCCCC(=O)NC(CO)(CO)CO [Example 22, 4-[[2-[4-[3-[1-(5-chloropyrimidin-2-yl)-4-piperidyl]propoxy]-2-fluoro-phenyl]acetyl]amino]-N-[2-hydroxy-1,1-bis(hydroxymethyl)ethyl]butanamide]

— patent US20230061736A1, “GPR119 AGONISTS” (Kallyope, Inc., priority 2019, published 2023)
